# Test results published in article PMC9919139, “Sustainable Synthesis, Antiproliferative and Acetylcholinesterase Inhibition of 1,4- and 1,2-Naphthoquinone Derivatives” (Molecules, 2023).
# Values joined by “and” are separate entries in the source; they are usually repeats but may differ in a detail not shown here. Equal entries are not always repeated. Where two headings read alike, the source gives them in different places.
# How the values were obtained:
# [1] = MTT cytotoxicity assay against HepG2 cell line; format: cell-based, human; conditions: human, HepG2 cells, HepG2, 24 h incubation, mean ± SD, read-out: EC50 (cytotoxicity, concentration leading to the death of 50% of the cells)
# Procedure: (§1) A hepatocellular carcinoma cell line HepG2, recognized for studying the metabolism of anticancer drugs, was used. The viability of HepG2 cell line culture after 24 h incubation with the compounds using the MTT (3-[4,5-dimethylthiazol-2-yl]-2,5-diphenyl tetrazolium bromide) assay was evaluated, and doxorubicin (Doxo) was used as a positive control.
# (§2) HepG2 human hepatocyte carcinoma cell line was purchased from European Collection of Authenticated Cell Cultures (ECACC). HepG2 cells (ECACCC# 85011430) were cultured in Dulbecco’s Modified Eagle´s Medium (DMEM) supplemented with 10% fetal bovine serum, antibiotic-antimycotic (100 U/mL penicillin-streptomycin and 0.25 μg amphotericin B) and 2 mM L-glutamine at 37 °C in an atmosphere containing 5% CO2. The 3-(4,5-dimethylthiazol-2-yl)-2,5-diphenyltetrazolium bromide (MTT) method, described in Gaspar et al., [50] was used for assaying cell viability. Briefly, the cells were grown in the supplemented medium in 96-well microplates in an incubator with 5% CO2 at 37 °C, until reaching 100% confluence. After growth, the medium was replaced by the compounds’ solutions at different concentrations. The compounds were solubilized in supplemented medium containing 0.5% DMSO final concentration. Cells treated only with medium containing 0.5% DMSO served as a negative control. After 24 h incubation, the compound’s solutions were replaced by 100 µL of 0.5 mg/mL MTT solution in DMEM culture medium and incubated at 37 °C, 5% CO2 for 2–4 h. The formed formazan crystals were dissolved in 200 µL of methanol and the absorbance at 595 nm was registered against 630 nm (reference wavelength). For each concentration of the compounds, the percentage of growth inhibition/cytotoxicity was evaluated considering 100% of viability for the absorbance of the negative control. Dose-response curves for each compound were plotted using the Graph Pa Prim 4.0 software and the effective concentration leading to the death of 50% of the cells (EC50) was calculated. All experiments were replicated at least six times.
# [2] = molecular target: acetylcholinesterase (AChE) (Homo sapiens, UniProt P22303); assay: AChE inhibition assay (Ellman's colorimetric method); format: biochemical; conditions: for IC50: concentration that inhibits 50% of the AChE activity, read-out: AChEIC50
# Procedure: The inhibition of acetylcholinesterase (AChE) enzymatic activity was measured using the Ellman’s colorimetric method with some alterations. Briefly, 325 μL of 50 mM Tris–HCl buffer (pH 8), 100 μL of a compound’s solution with 1% DMSO, and 25 μL of AChE (0.1 U/mL) in 50 mM Tris–HCl buffer pH 8 were incubated for 15 min. Subsequently, 75 μL of acetylthiocholine iodide (AChI) (0.023 mg/mL) and 475 μL of 3 mM 5,5′-dithiobis(2-nitrobenzoic acid) (DTNB) in Tris–HCl buffer (pH 8) containing 0.05 M NaCl and 0.021 M MgCl2 were added to initiate the reaction. The initial rate of the enzymatic reaction was quantified by measuring the absorbance at 405 nm for 5 min (V[compound]). A control reaction was carried out using 1% DMSO water solution, instead of the compound’s solution, and this initial rate was considered 100% of the enzymatic activity, Vcontrol. The percentage of AChE inhibition (I) for various concentrations of the different compounds was determined as the ratio of V[compound] and Vcontrol. For each compound, both the AChEIC50 value (the concentration that inhibits 50% of the AChE activity) and the percentage of inhibition at the compound concentration of 50 µM (Inhibition50µM) were calculated by plotting I for each compound concentration. All the assays were carried out in triplicate.
# [3] = Cyclic voltammetry in acetonitrile; format: physicochemical; conditions: for Ipa/Ipc: Tables S1/S2, acetonitrile; for Epa. Epc: Tables S1/S2, peak separation; for ∆E (I) / E1/2 (I) / Epc (I): first reduction wave; for ∆E (I) / E1/2 (I) / Epc (I) / Epc (II) / ∆E (II) / E1/2 (II): scan rate 0.100 V·s−1; for Epc (II) / ∆E (II) / E1/2 (II): second reduction wave
# Excerpt: To obtain an insight into the electronic character of the studied naphthoquinone derivatives and to find out possible relationships with their potential biological activities, the electrochemical behavior of 1,4-NQ (1) and 1,2-NQ (2) and their 2-substituted-1,4-NQ (3a–f) and 4-substituted-1,2-NQ derivatives (4a–h), respectively, were studied by cyclic voltammetry (CV) in aprotic medium (CH3CN + TBAP, 0.1 mol.L^−^1) and the electrochemical selected data are listed in Table 3 (for complete electrochemical data, see Tables S1 and S2, supplementary material).
# The redox potentials were measured by cyclic voltammetry using an EG&G Princeton Applied Research (PAR) Model 273A potentiostat/galvanostat monitored by a personal computer with the Electrochemistry PowerSuite v2.51 software from PAR. Cyclic voltammograms were obtained in 1 mM of compounds in anhydrous acetonitrile solutions containing tetrabutylammonium hexafluorophosphate (TBAPF6) 0.1 M as supporting electrolyte. A three-electrode configuration cell was used with a homemade platinum disk working electrode (1.0 mm diameter) probed by a Luggin capillary connected to a silver-wire pseudo-reference electrode and a platinum wire auxiliary electrode. The potentials were scanned from −1.8 to 1.8 V at a scan rate of 100 mV·s^−^1. All measurements were done at room temperature and the solutions were deaerated with nitrogen atmosphere before use. All the potentials reported were measured against the ferrocene/ferrocenium redox couple as internal standard and corrected to SCE (using the ferrocenium/ferrocene redox couple E1/2 = 0.40 V vs. SCE).
# [4] = test system: HepG2 human hepatocyte carcinoma cell line; assay: MTT cytotoxicity assay against HepG2 cell line; format: cell-based; conditions: HepG2, 24 h incubation, mean ± SD, read-out: EC50 (cytotoxicity, concentration leading to the death of 50% of the cells)
# Procedure: as §1, §2
# AChE = conditions: read-out: AChEIC50 of reference AChE inhibitors; cited from earlier work
# [5] = read-out: Inhibiton50µM (μM±SD)
# [6] = Tables S1/S2, every redox process listed, acetonitrile, vs SCE, 100 mV.s-1
# [7] = read-out: Inhibition50µM (AChE inhibition)
# Sequence of acetylcholinesterase (AChE) (P22303 32-614): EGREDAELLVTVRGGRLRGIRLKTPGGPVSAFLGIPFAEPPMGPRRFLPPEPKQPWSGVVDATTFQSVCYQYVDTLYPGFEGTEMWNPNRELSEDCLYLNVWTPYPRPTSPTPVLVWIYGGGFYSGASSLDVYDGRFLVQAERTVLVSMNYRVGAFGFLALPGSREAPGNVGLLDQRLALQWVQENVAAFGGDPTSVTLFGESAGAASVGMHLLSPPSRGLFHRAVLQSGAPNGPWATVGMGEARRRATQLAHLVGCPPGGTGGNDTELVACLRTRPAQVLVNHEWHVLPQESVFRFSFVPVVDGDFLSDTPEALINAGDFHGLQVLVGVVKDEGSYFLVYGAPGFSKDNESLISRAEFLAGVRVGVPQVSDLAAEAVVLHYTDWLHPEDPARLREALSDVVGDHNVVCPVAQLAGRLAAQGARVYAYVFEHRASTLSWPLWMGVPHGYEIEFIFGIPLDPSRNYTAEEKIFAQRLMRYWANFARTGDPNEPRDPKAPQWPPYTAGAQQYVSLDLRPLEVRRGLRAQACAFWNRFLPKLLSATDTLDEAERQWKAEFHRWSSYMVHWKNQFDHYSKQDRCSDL
Structure (SMILES),EC50 at 24 h [1] [µM],"inhibition at 50 µM [2, 5] [%]",Ipa/Ipc ([3]; 100 mV.s-1),"Epa. Epc ([3]; acetonitrile, 100 mV.s-1)",∆E (I) ([3]; acetonitrile) [mV],"E1/2 (I) ([3]; acetonitrile, vs SCE) [V]","Epc (I) ([3]; acetonitrile, vs SCE) [V]","Epc (II) ([3]; acetonitrile, vs SCE) [V]","E1/2 [3, 6] [V]",further results
"COc1ccc(NC2=CC(=O)c3ccccc3C2=O)cc1 [Compound 3c, 2-(4-methoxyaniline)-1,4-naphthoquinone]",13 ± 1.8,25.9 ± 3,1.0,120 mV,70,−0.82,−0.86,−1.34,–,–
COc1ccc(NC2=CC(=O)C(=O)c3ccccc32)cc1 [Compound 4c],6.5 ± 1.4,45.8 ± 2.9,–,–,–,–,−0.67,–,–,–
N#Cc1ccc(NC2=CC(=O)C(=O)c3ccccc32)cc1 [Compound 4d],26.8 ± 1.1,41.6 ± 2.4,–,–,–,–,−0.47,−0.84,–,–
"O=C1C=C(Nc2ccc(O)cc2)C(=O)c2ccccc21 [Compound 3b, 2-(4-aminophenol)-1,4-naphthoquinone]",21.4 ± 3.9,16.4 ± 2,1.0,–,70,−0.81,−0.84,–,-0.81,"Epc [3, 6]: -0.84 V"
O=C1C=C(Nc2ccc(O)cc2)c2ccccc2C1=O [Compound 4b],7.1 ± 1.8,74.1 ± 1.1,–,–,–,–,−0.61,–,–,"IC50 [2]: 30 µM; Epc [3, 6]: -0.61 V"
"O=C1C=Cc2ccccc2C1=O [Compound 2, 1,2-naphthoquinone]",25.6 ± 1.1,34.9 ± 5.2,1.0,110 mV and 140 mV,110,−0.50,−0.55,−0.98,–,"EC50 ([4]; listed as 1,2-NQ): 26 µM; inhibition at 50 µM [2, 7]: 35%; ∆E (II) ([3]; acetonitrile): 140 mV; E1/2 (II) ([3]; acetonitrile, vs SCE): −0.91 V"
"COc1cccc2c1C(=O)c1c(O)c3c(c(O)c1C2=O)C[C@@](O)(C(=O)CO)C[C@@H]3O[C@H]1C[C@H](N)[C@H](O)[C@H](C)O1 [Doxorubicin, doxorubicin, reference compound]",1.42 ± 1,–,–,–,–,–,–,–,–,EC50 [4]: 1.4 µM
"O=C1C=CC(=O)c2ccccc21 [Compound 1, 1,4-naphthoquinone, reference compound]",32.2 ± 1.4,50.7 ± 2.3,0.9,80 mV,80,−0.66,−0.70,−1.36,-0.66,"EC50 ([4]; listed as 1,4-NQ): 32 µM; inhibition at 50 µM [2, 7]: 51%"
"CCCCNC1=CC(=O)c2ccccc2C1=O [Compound 3e, 2-(butan-1-amine)-1,4-naphthoquinone]",35.8 ± 1.5,48.3 ± 1.6,1.0,100 mV,70,−0.95,−0.98,−1.47,–,"∆E (II) ([3]; acetonitrile): 100 mV; E1/2 (II) ([3]; acetonitrile, vs SCE): −1.42 V"
"N#Cc1ccc(NC2=CC(=O)c3ccccc3C2=O)cc1 [Compound 3d, 2-(4-aminobenzonitrile)-1,4-naphthoquinone]",79.4 ± 1.4,25.8 ± 3,1.0,80 mV,80,−0.70,−0.74,–,-0.70,"Epa [3, 6]: -0.66 V"
"CCN(CC)C1=CC(=O)c2ccccc2C1=O [Compound 3f, 2-(diethylamine)-1,4-naphthoquinone]",64.7 ± 1.4,47.9 ± 2.5,1.0,–,70,−0.94,−0.97,–,-0.94,"Epc [3, 6]: -0.97 V"
O=C1C=C(Nc2ccc(Nc3ccccc3)cc2)c2ccccc2C1=O [Compound 4g],9.2 ± 2.3,75.3 ± 1.3,–,–,–,–,−0.63,−1.43,–,–
"Nc1ccc(NC2=CC(=O)c3ccccc3C2=O)cc1 [Compound 3a, 2-(1,4-Phenylenediamine)-1,4-naphthoquinone]",8.7 ± 1.3,23.4 ± 2.5,0.9,80 mV,80,−0.82,−0.86,−1.42,-0.82,–
O=C1C=C(Nc2ccccc2O)c2ccccc2C1=O [Compound 4h],9.1 ± 3.3,85.3 ± 1.3,–,–,–,–,−0.57,−0.98,–,"IC50 [2]: 16 µM; inhibition at 50 µM [2, 7]: 85%"
"CCN(CC)C1=CC(=O)C(=O)c2ccccc21 [Compound 4f, 4-(diethylamine)-1,2-naphthoquinone]",23.1 ± 1.7,54.7 ± 2,0.9,120 mV,–,–,−0.52,−0.69,-0.63,"∆E (II) ([3]; acetonitrile): 120 mV; E1/2 (II) ([3]; acetonitrile, vs SCE): −0.63 V"
Nc1ccc(NC2=CC(=O)C(=O)c3ccccc32)cc1 [Compound 4a],2.7 ± 1,51.7 ± 2.1,–,–,–,–,−0.67,–,–,"EC50 [4]: 3 µM; Epc [3, 6]: -0.67 V"
"CCCCNC1=CC(=O)C(=O)c2ccccc21 [Compound 4e, 4-(butan-1-amine)-1,2-naphthoquinone]",26.8 ± 1.1,62.4 ± 1.5,–,150 mV,–,–,−0.78,–,-0.71,"Epc [3, 6]: -0.78 V"
